Measured values published in patent US20070178577A1, “Method for effecting the anaerobic biological decomposition of organsiloxanes” (WACKER CHEMIE AG, priority 2004, published 2007).

Experiments:
[1] = tested on: Sewage sludge from a municipal sewage treatment plant; test: Anaerobic decomposition of dimethylsilanediol (DMSD) by sewage sludge with nitrate as electron acceptor, 1H-NMR; conditions: in 11 days
From the text: Sewage sludge from a municipal sewage treatment plant was taken off from running operations under oxygen-free conditions (N2-comprising sample vessels). To separate off interfering substrates, the cell mass was resuspended in 5-times the volume of an oxygen-free buffer (50 mmol/l of potassium phosphate pH 6.8) and centrifuged off. Oxygen-free solutions were produced by degassing the solution and purging with gaseous nitrogen.
The operation (resuspending/centrifuging) was repeated 3 times.
The washed oxygen-free cell mass was transferred in the absence of oxygen into shake flasks comprising culture medium (10 g of moist cell mass per 100 ml of medium). For control batches, the sewage sludge was autoclaved and inactivated thereby. […]
As electron acceptor, in addition, 5 g/l of KNO3 were added. […] Samples of the culture medium were taken off at regular intervals and analyzed immediately. […]
Analysis: In experiments using DMSD as a substrate, the change in concentration of DMSD in the aqueous phase was determined by means of proton magnetic resonance spectroscopy (^1H-NMR). […] Samples (0.9 ml) from the culture batches were taken off for this directly (via the stopper) from the vessel, admixed with standard (TSP in D2O; TSP=3-(trimethylsilyl)propionic acid-D4 sodium salt) and analyzed in the spectrometer. The DMSD signal can be quantified exactly via the known standard signal).

Sewage sludge = test: Anaerobic decomposition of octamethylcyclosiloxane (D4) by sewage sludge with nitrate as electron acceptor, gas chromatography; conditions: in 11 days
Method: The experiment was carried out in accordance with Example 1. In each case five flasks were made up with sewage sludge and five flasks with inactivated sewage sludge. As carbon source, octamethylcyclosiloxane (D4) was added to the medium. The siloxane is immiscible with water and first forms an oily film on the culture surface. With advancing culture time, the siloxane oil is emulsified in the culture. Relatively large cell aggregates form. Culture proceeds in accordance with Example 1 in the mineral medium specified there (SM1) comprising 5 g/l of KNO3 as electron acceptor. As sole carbon source, octamethylcyclosiloxane (D4) was added to the batches (1 ml per 100 ml of medium). After differing incubation times, the D4 content of the batches was determined. The entire batch was extracted 3 times with 50 ml of pentane, and to facilitate phase separation, it was centrifuged each time. The pentane phases were combined and D4 determined quantitatively directly by means of gas chromatography (Hewlett Packard instrument hp5890_li). The gas-chromatographic determination proceeded using a 30 m capillary (Hewlett Packard HP-1 No. 59026323) using nitrogen as carrier gas. Temperature program: 50° C. (5 min)−270° C. at 20° C./min. Detection was by means of FID at 300° C. The resultant signal peaks were quantified using corresponding standard solutions.

[2] = anaerobically incubated batch comprising sewage sludge
[3] = control batch (inactivated sewage sludge)

C[Si](C)(O)O [DMSD, Dimethylsilanediol]
decrease of the amount of DMSD [1, 2]: −39% | decrease of the amount of DMSD [1, 3]: −9%

C[Si]1(C)O[Si](C)(C)O[Si](C)(C)O[Si](C)(C)O1 [D4, Octamethylcyclosiloxane]
decrease in the amount of D4 (Sewage sludge; [2]): −16.3% | decrease in the amount of D4 (Sewage sludge; [3]): −6.2%
